Experimental data taken from article PMC6085820 (Molecular Biology of the Cell, 2018).

Target: T1, Mtq2:Trm112 (Saccharomyces cerevisiae, UniProt Q03920)
T1 sequence (Q03920 1-221): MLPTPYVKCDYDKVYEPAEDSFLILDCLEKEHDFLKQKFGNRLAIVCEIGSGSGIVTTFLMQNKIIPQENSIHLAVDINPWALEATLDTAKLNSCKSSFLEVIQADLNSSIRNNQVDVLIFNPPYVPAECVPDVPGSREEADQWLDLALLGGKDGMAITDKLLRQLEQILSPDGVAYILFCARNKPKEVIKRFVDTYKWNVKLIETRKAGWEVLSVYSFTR
T1 sequence (P53738 1-135 partner): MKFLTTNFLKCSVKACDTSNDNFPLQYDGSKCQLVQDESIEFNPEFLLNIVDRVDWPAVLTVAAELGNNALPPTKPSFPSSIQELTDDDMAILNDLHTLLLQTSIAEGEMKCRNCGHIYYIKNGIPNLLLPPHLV
Assay: MTase-Glo coupled luminescence assay
Type: biochemical
Conditions: SAM as methyl donor

SMILES	MTase-Glo coupled luminescence assay (SAH formation) (100 µM As(III))	MTase-Glo coupled luminescence assay (SAH formation) (100 µM MAs(III))
O[As](O)O [As(III), sodium arsenite]	SAM-dependent methyltransferase activity of Mtq2:Trm112 using As(III) as substrate was measured	
C[As](O)O [MAs(III), methyl arsenite]		methyltransferase activity was SAM-dependent and additionally capable of using MAs(III) as a substrate
